“Also recorded” adds a separate entry of the source.
Legend:
[1] = tested on: superficial inflammatory lesions; conditions: clinically; cited from earlier work
IL-1ra [2] = assay: ELISA assay of IL-1ra secreted in culture supernatants of explants of acneic skin; type: cell-based, human; conditions: for secreted amount of IL-1ra: acneic skin explants (n=8), 24 hours; for increase of secreted IL-1ra compared with the control medium: acneic skin explants
Experimental: (§1) A skin biopsy (1×1.5 cm) was obtained from inflammatory papulae of lesions on the back of 8 acneic patients (having received no local treatment for 2 weeks or no general treatment for 1 month, or 3 months with isotretinoin). The fragments sampled were immediately placed in culture.
(§2) The fragments of healthy skin and of acneic skin were incubated at 37° C. in a humid atmosphere and in the presence of 5% CO2 for 24 hours in KGM culture medium without hydrocortisone (PromoCell, Heidelberg, Germany). The culture medium was supplemented with 2 different concentrations of adapalene (Galderma, Sophia Antipolis): 10^−7 M and 10^−6 M. The culture medium alone served as control medium.
(§3) After incubation, the explants were removed from the culture medium and were then frozen in liquid nitrogen for the immunohistochemical study. The culture supernatants were frozen at −80° C. to evaluate the protein secretion using an ELISA assay technique.
(§4) The IL-1ra protein secretion […] in the culture supernatants of the explants of acneic skin and of healthy skin, incubated in the presence or absence of adapalene, was evaluated by means of an ELISA assay using the IL-1ra Cytoscreen detection kit (Biosource Europe S.A., Nivelles, Belgium) and according to the supplier's instructions.
(§5) A mean was established on 8 healthy donors or 8 acneic patients in each of the “control”, “10^−7 M adapalene” and “10^−6 M adapalene” groups.
(§6) The paired Wilcoxon test was employed for the statistical analysis, and p<0.05 (by comparison with the control medium) was considered to be significant.

[3] = tested on: polymorphonuclear neutrophils; conditions: cited from earlier work
IL-1ra [4] = assay: ELISA assay of IL-1ra secreted in culture supernatants of explants of healthy skin; type: cell-based, human; conditions: for amount of IL-1ra secreted in the culture supernatants: healthy skin explants (n=8), 24 hours
Experimental: (§7) Fragments of healthy skin from 8 healthy donors were obtained from mammary plasties (plastic surgery) or from a foreskin (infant surgery).
as §2, §3, §4, §5, §6

lipoxygenase pathway = conditions: cited from earlier work
[5] = tested on: cellular retinoic acid binding proteins; conditions: cited from earlier work
IL-1ra [6] = assay: Immunohistochemistry of IL-1ra expression in explants of acneic skin; type: cell-based, human; conditions: for intensity of expression of IL-1ra in the epidermis: acneic patients (n=8), 24 hours, scale 0-3
Experimental: as §1, §2, §3
(§8) The expression of IL-1ra was evaluated by an immunoperoxidase technique in the explants of healthy skin from 8 healthy donors and of the acneic skin from 8 patients.
For this, cryostat sections 5 μm thick were cut from the skin explants, and were then fixed in acetone at 4° C. for 10 minutes. […]
After washing for 15 minutes in TBS/0.1% BSA/0.05% Tween 20, the slides were incubated with a biotinylated secondary antibody (DAKO) for 30 minutes at ambient temperature and in a humid atmosphere. […] The slides were read under a microscope.
(§9) The slides were read under a Leitz microscope by 2 investigators.
A semi-quantitative scale was used to define the intensity of the labeling: 0=none, 1=weak, 2=medium, 3=strong. […]

RARβ = target: T1, RARβ (Homo sapiens, UniProt P10826); conditions: cited from earlier work
T1 sequence (P10826 1-455): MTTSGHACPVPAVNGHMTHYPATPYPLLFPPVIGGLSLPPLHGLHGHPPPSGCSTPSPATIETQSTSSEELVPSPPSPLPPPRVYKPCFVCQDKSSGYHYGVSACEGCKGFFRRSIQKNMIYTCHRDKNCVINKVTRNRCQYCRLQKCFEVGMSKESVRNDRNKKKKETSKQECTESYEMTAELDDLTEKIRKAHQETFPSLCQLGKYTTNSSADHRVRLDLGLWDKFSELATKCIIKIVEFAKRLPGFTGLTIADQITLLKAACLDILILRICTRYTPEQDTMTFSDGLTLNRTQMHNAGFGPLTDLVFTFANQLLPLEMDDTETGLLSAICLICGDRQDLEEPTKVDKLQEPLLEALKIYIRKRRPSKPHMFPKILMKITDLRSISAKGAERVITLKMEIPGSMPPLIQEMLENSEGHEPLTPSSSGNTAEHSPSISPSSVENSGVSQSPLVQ

free radicals = conditions: cited from earlier work
RARγ = target: T2, RARγ (Homo sapiens, UniProt P13631); conditions: cited from earlier work
T2 sequence (P13631 1-454): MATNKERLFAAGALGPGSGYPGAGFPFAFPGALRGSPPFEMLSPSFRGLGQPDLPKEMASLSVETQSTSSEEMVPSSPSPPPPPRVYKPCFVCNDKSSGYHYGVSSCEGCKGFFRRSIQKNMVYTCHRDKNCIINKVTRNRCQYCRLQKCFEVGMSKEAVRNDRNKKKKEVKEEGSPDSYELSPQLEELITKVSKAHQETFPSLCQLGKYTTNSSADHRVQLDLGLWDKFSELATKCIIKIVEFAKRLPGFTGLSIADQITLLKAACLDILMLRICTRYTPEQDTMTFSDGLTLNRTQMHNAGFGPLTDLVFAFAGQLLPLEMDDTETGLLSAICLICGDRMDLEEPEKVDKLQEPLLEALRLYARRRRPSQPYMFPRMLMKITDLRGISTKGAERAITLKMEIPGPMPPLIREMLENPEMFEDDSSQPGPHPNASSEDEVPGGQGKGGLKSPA

IL-1ra [7] = assay: Immunohistochemistry of IL-1ra expression in explants of healthy human skin; type: cell-based; conditions: for intensity of expression of IL-1ra / intensity of expression of IL-1ra in the epidermis: 24 hours; for intensity of expression of IL-1ra: scale 0-3; for intensity of expression of IL-1ra in the epidermis: healthy donors (n=8), scale 0=none to 3=strong, mean (+/−)
Experimental: as §7, §2, §3, §8
For this, cryostat sections 5 μm thick were cut from the skin explants, and were then fixed in acetone at 4° C. for 10 minutes. After saturation of the nonspecific sites with bovine albumin (BSA) for 30 minutes at ambient temperature, the slides were incubated for 30 minutes at ambient temperature and in a humid atmosphere in the presence of the corresponding primary antibody [anti-IL-1ra monoclonal antibody at 10 μg/ml (R&D Systems)] or of an irrelevant isotype antibody for the negative control (normal goat IgG at (R&D Systems), IgG2a monoclonal antibody (DAKO, Trappes, France), IgG1 monoclonal antibody (DAKO)).
After washing for 15 minutes in TBS/0.1% BSA/0.05% Tween 20, the slides were incubated with a biotinylated secondary antibody (DAKO) for 30 minutes at ambient temperature and in a humid atmosphere. After a further washing step, the slides were incubated for 30 minutes in the presence of streptavidin/peroxidise (DAKO) for 30 minutes at ambient temperature and in a humid atmosphere. After a final wash, the slides were incubated for 5 minutes in the presence of AEC (DAKO), a substrate for peroxidise, and then counterstained with Mayer's hemalun. The slides were read under a microscope.
as §9
A semi-quantitative scale was used to define the intensity of the labeling: 0=none, 1=weak, 2=medium, 3=strong.
as §5, §6

COc1ccc(-c2ccc3cc(C(=O)O)ccc3c2)cc1C12CC3CC(CC(C3)C1)C2 [adapalene, 6-[3-(1-adamantyl)-4-methoxyphenyl]-2-naphthoic acid]
clinical activity on superficial inflammatory lesions (in words) [1]: exhibits an activity
secreted amount of IL-1ra (IL-1ra [2]; 10^−6 M adapalene): 1161 pg
secreted amount of IL-1ra (IL-1ra [2]; 10^−7 M adapalene): 1196 pg
increase of secreted IL-1ra compared with the control medium (IL-1ra [2]; 10^−6 M adapalene): 1.4%
increase of secreted IL-1ra compared with the control medium (IL-1ra [2]; 10^−7 M adapalene): 4.4%
chemotaxis of polymorphonuclear neutrophils (in words) [3]: inhibits
amount of IL-1ra secreted in the culture supernatants (IL-1ra [4]; 10^−6 M adapalene): 564 pg
amount of IL-1ra secreted in the culture supernatants (IL-1ra [4]; 10^−7 M adapalene): 600 pg
decrease of secreted IL-1ra compared with the control medium (IL-1ra [4]; healthy skin explants, 10^−6 M adapalene): 3.5%
increase of secreted IL-1ra compared with the control medium (IL-1ra [4]; healthy skin explants, 10^−7 M adapalene): 2.6%
oxidative metabolism of arachidonic acid via the lipoxygenase pathway (in words) (lipoxygenase pathway): inhibits
production of leukotrienes via the lipoxygenase pathway (in words) (lipoxygenase pathway): inhibits
binding to cellular retinoic acid binding proteins (in words) [5]: does not, on the other hand, bind
intensity of expression of IL-1ra in the epidermis (IL-1ra [6]; 10^−6 M adapalene): 0.9 (+/−0.7)
intensity of expression of IL-1ra in the epidermis (IL-1ra [6]; 10^−7 M adapalene): 0.8 (+/−0.8)
effect on the expression of IL-1ra in the epidermis (in words) (IL-1ra [6]; acneic patients, 10^−7 M and 10^−6 M): increases the expression
binding to RARβ (in words) (RARβ): binds selectively
production of free radicals (in words) (free radicals): inhibits
binding to RARγ (in words) (RARγ): binds selectively
intensity of expression of IL-1ra (IL-1ra [7]; 1st subgroup of healthy donors (n=4, weak control expression), 10^−6 M adapalene): 1.2 (+/−0.4)
intensity of expression of IL-1ra (IL-1ra [7]; 1st subgroup of healthy donors (n=4, weak control expression), 10^−7 M adapalene): 1.1 (+/−0.4)
modulatory effect on the expression of IL-1ra (in words) (IL-1ra [7]; 1st subgroup of healthy donors, expression in the control medium weak): an inducing effect
intensity of expression of IL-1ra (IL-1ra [7]; 2nd subgroup of healthy donors (n=4, greater control expression), 10^−6 M adapalene): 0.5 (+/−0.0)
intensity of expression of IL-1ra (IL-1ra [7]; 2nd subgroup of healthy donors (n=4, greater control expression), 10^−7 M adapalene): 0.5 (+/−0.0)
modulatory effect on the expression of IL-1ra (in words) (IL-1ra [7]; 2nd subgroup of healthy donors, expression in the control medium greater): an inhibitory effect
intensity of expression of IL-1ra in the epidermis (IL-1ra [7]; 10^−6 M adapalene): 0.8 (+/−0.4)
intensity of expression of IL-1ra in the epidermis (IL-1ra [7]; 10^−7 M adapalene): 0.9 (+/−0.5)
modulatory effect on the expression of IL-1ra in the epidermis (in words) (IL-1ra [7]; mean of 8 healthy donors, 10^−7 M and 10^−6 M): No significant modulation; also recorded: does not demonstrate a modulatory effect

Reference: US20100130614A1, “ADMINISTRATION OF ADAPALENE FOR MODULATING THE EXPRESSION OF IL-1ra” (GALDERMA RESEARCH & DEVELOPMENT, priority 2007, published 2010)
